“And” between values parts separate entries of the source, which are not always exact repeats. Identical values can stand only once.
Molecular target: human AMPK (full-length γ1, β1 and α1 subunits) (Homo sapiens (Human), UniProt Q13131+Q9Y478)
Experiment: AMPK in vitro biochemical assay (33P-based, SAMS peptide, PP2A dephosphorylation)
Conditions: for EC50: activation of phosphorylated AMPK, 33P-ATP, SAMS peptide, PP2A treatment, 4-parameter fit; for Emax / Maximum: counts as % of positive control wells (enzyme, allosteric activator or AMP, PP2A and substrate); for Emax: read-out: Maximum
Outline: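 Phosphorylated full-length α1β1γ1 AMPK (E. coli-expressed, His-purified, gel-filtered) preincubated 15 min RT with compound in HEPES pH 7.5, 10 mM MgCl2 buffer, then PP2A added to dephosphorylate pThr172.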

Chain of human AMPK (full-length γ1, β1 and α1 subunits) (Q13131 whole entry): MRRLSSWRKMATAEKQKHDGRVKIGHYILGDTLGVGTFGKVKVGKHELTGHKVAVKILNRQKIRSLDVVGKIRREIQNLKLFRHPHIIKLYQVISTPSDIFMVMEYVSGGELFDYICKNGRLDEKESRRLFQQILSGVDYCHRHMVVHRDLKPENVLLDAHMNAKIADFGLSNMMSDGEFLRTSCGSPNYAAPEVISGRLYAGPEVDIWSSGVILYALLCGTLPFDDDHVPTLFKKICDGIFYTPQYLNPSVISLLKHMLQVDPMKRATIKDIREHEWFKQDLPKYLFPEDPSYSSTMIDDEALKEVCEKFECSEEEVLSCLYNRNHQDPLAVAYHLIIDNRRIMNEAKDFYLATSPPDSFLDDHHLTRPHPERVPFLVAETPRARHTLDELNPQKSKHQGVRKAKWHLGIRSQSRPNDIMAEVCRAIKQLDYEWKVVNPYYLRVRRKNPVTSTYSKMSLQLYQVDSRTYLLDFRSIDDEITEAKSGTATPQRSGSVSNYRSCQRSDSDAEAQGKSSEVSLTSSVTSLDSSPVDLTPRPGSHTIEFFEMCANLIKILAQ
Chain of human AMPK (full-length γ1, β1 and α1 subunits) (Q9Y478 whole entry): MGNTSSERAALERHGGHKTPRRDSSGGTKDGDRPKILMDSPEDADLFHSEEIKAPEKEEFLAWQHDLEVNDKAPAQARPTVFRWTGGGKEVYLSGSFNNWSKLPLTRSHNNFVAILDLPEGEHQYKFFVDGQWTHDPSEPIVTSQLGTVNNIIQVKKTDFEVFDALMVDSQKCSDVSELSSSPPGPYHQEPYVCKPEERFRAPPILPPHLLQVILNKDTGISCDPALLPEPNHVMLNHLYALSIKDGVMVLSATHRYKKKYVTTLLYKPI
Chain of human AMPK (full-length γ1, β1 and α1 subunits) (P54619 whole entry partner): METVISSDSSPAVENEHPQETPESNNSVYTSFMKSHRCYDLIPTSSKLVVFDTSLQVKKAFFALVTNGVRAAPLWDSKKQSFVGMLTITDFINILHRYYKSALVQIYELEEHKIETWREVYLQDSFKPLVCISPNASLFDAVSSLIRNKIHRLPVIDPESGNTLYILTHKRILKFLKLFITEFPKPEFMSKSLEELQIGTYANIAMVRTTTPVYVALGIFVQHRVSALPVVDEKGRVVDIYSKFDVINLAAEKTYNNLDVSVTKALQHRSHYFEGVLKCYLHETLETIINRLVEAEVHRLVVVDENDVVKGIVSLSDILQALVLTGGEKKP

SMILES	EC50	Emax [%]	Maximum [%]
COc1cc(C2(O)CCC2)ccc1-c1cc2c(C(=O)O)c[nH]c2cc1Cl [Example 62, 6-chloro-5-[4-(1-hydroxycyclobutyl)-2-methoxyphenyl]-1H-indole-3-carboxylic acid]	33.3 nM	74	
Cc1cc(-c2cc3c(C(=O)O)c[nH]c3cc2Cl)ccc1C1(O)CCC1 [Example 41, 6-chloro-5-[4-(1-hydroxycyclobutyl)-3-methylphenyl]-1H-indole-3-carboxylic acid]	9.6 nM	62	
O=C(O)c1c[nH]c2cc(Cl)c(-c3ccc(C4(CO)CC4)cc3)cc12 [Example 75, 6-chloro-5-{4-[1-(hydroxymethyl)cyclopropyl]phenyl}-1H-indole-3-carboxylic acid]	0.5 nM	91	
COc1ccc(-c2cc3c(C(=O)O)c[nH]c3cc2F)cc1 [Example 34, 6-Fluoro-5-(4-methoxy-phenyl)-1H-indole-3-carboxylic acid]	315 nM	122	
CC(C)(CO)c1ccc(-c2cc3c(C(=O)O)c[nH]c3cc2Cl)cc1F [Example 163, 6-chloro-5-[3-fluoro-4-(1-hydroxy-2-methylpropan-2-yl)phenyl]-1H-indole-3-carboxylic acid]	12.9 nM and 10.3 nM	110	
COc1cc(-c2c(F)cc3[nH]cc(C(=O)O)c3c2F)ccc1C1(O)CCC1 [Example 145]	57.9 nM	65.2	
O=C(O)c1c[nH]c2cc(Cl)c(-c3ccc(C4(C(=O)O)CCC4)cc3)cc12 [Example 78, 5-[4-(1-carboxycyclobutyl)phenyl]-6-chloro-1H-indole-3-carboxylic acid]	2000 nM	68	
COc1cc(-c2cc3c(C(=O)O)c[nH]c3cc2Cl)ccc1C1(O)CCC1 [Example 61, 6-chloro-5-[4-(1-hydroxycyclobutyl)-3-methoxyphenyl]-1H-indole-3-carboxylic acid]	2.3 nM	57	
CC(=O)N1CCN(c2ccc(-c3cc4c(C(=O)O)n[nH]c4cc3Cl)cc2)CC1 [Example 107, 5-(4-(4-Acetylpiperazin-1-yl)phenyl)-6-chloro-1H-indazole-3-carboxylic acid]	43.5 nM	60	
COc1nc(N2CCC(O)C2)ccc1-c1cc2c(C(=O)O)c[nH]c2cc1Cl (stereo not shown) [Example 161, 6-chloro-5-[6-(3-hydroxypyrrolidin-1-yl)-2-methoxypyridin-3-yl]-1H-indole-3-carboxylic acid]	8.33 nM	92.9	
COc1cccc(-c2cc3c(C(=O)O)c[nH]c3cc2Cl)c1 [Example 29, 6-chloro-5-(3-methoxyphenyl)-1H-indole-3-carboxylic acid]	383 nM	101	
CS(=O)(=O)N1CCCC1c1ccc(-c2cc3c(C(=O)O)c[nH]c3cc2Cl)cc1 (stereo not shown) [Example 84, 6-chloro-5-{4-[1-(methylsulfonyl)pyrrolidin-2-yl]phenyl}-1H-indole-3-carboxylic acid]	344 nM	72	
O=C(O)c1c[nH]c2cc(F)c(-c3ccc(OCCCO)cc3)c(F)c12 [Example 28, 4,6-difluoro-5-[4-(3-hydroxypropoxy)phenyl]-1H-indole-3-carboxylic acid]	1080 nM	98	
N#Cc1cc(C2(O)CCC2)ccc1-c1cc2c(C(=O)O)c[nH]c2cc1Cl [Example 69, 6-chloro-5-[2-cyano-4-(1-hydroxycyclobutyl)phenyl]-1H-indole-3-carboxylic acid]	264 nM	74	
CNC(=O)COc1ccc(-c2cc3c(C(=O)O)c[nH]c3cc2Cl)cc1 [Example 82, 6-chloro-5-{4-[2-(methylamino)-2-oxoethoxy]phenyl}-1H-indole-3-carboxylic acid]	216 nM	86	
O=C(O)c1c[nH]c2cc(Cl)c(-c3ccc(C4(C(=O)O)CC4)cc3)cc12 [Example 88, 5-[4-(1-carboxycyclopropyl)phenyl]-6-chloro-1H-indole-3-carboxylic acid]	58.1 nM	78	
O=C(O)c1c[nH]c2cc(Cl)c(-c3ccc(C4CCCN4)cc3)cc12 (stereo not shown) [Example 83, 6-chloro-5-[4-(pyrrolidin-2-yl)phenyl]-1H-indole-3-carboxylic acid]	819 nM	108	
Cc1cc2[nH]cc(C(=O)O)c2cc1-c1ccc(C2(O)CCC2)cc1 [Example 35, 5-[4-(1-hydroxycyclobutyl)phenyl]-6-methyl-1H-indole-3-carboxylic acid]	74.2 nM	72	
COc1ccc(-c2cc3c(C(=O)O)n[nH]c3cc2C)c(F)c1 [Example 98, 5-(2-Fluoro-4-methoxyphenyl)-6-methyl-1H-indazole-3-carboxylic acid]	1050 nM	83	

SMILES	EC50	Emax [%]	Maximum [%]
COc1cc(-c2cc3c(C(=O)O)c[nH]c3cc2Cl)ccc1OC[C@@H]1CCCN1 [Example 55, (S)-6-Chloro-5-(3-methoxy-4-(pyrrolidin-2-ylmethoxy)phenyl)-1H-indole-3-carboxylic acid]	209 nM	87	
O=C(O)c1c[nH]c2cc(Cl)c(-c3ccc(OCC4CCO4)cc3)cc12 (stereo not shown) [Example 182, 6-chloro-5-[4-(oxetan-2-ylmethoxy)phenyl]-1H-indole-3-carboxylic acid]	19 nM	80	
COc1ccc(-c2cc3c(C(=O)O)c[nH]c3cc2Cl)c(F)c1 [Example 44, 6-chloro-5-(2-fluoro-4-methoxyphenyl)-1H-indole-3-carboxylic acid]	85 nM	78	
O=C(O)c1c[nH]c2cc(F)c(-c3ccc(C4CCCO4)cc3)c(F)c12 (single isomer, unassigned) [Example 153, 4,6-difluoro-5-[4-(tetrahydrofuran-2-yl)phenyl]-1H-indole-3-carboxylic acid]	137 nM		
O=C(O)c1n[nH]c2cc(Cl)c(-c3ccc(CO)cc3)cc12 [Example 111, 6-Chloro-5-(4-(hydroxymethyl)phenyl)-1H-indazole-3-carboxylic acid]	175 nM	12	
CC(=O)N1CCC(c2ccc(-c3cc4c(C(=O)O)c[nH]c4cc3Cl)cc2)CC1 [Example 65, 5-[4-(1-acetylpiperidin-4-yl)phenyl]-6-chloro-1H-indole-3-carboxylic acid]	135 nM	103	
COc1nc(N2CCC(OC)C2)ccc1-c1cc2c(C(=O)O)c[nH]c2cc1Cl (stereo in doubt) [Example 175, 6-chloro-5-{2-methoxy-6-[(3R)-3-methoxypyrrolidin-1-yl]pyridin-3-yl}-1H-indole-3-carboxylic acid]	22.6 nM	78.2	
CC(=O)N1CC(COc2ccc(-c3cc4c(C(=O)O)c[nH]c4cc3Cl)cc2)C1 [Example 9, 5-{4-[(1-acetylazetidin-3-yl)methoxy]phenyl}-6-chloro-1H-indole-3-carboxylic acid]	71.2 nM	81	
O=C(O)c1c[nH]c2cc(F)c(-c3ccc(C4CCCO4)cc3)cc12 (single isomer, unassigned) [Example 151, 6-fluoro-5-[4-(tetrahydrofuran-2-yl)phenyl]-1H-indole-3-carboxylic acid]	37.8 nM		103.8
O=C(O)c1c[nH]c2cc(F)c(-c3ccc(C4(CO)CCC4)cc3)cc12 [Example 143, 6-fluoro-5-{4-[1-(hydroxymethyl)cyclobutyl]phenyl}-1H-indole-3-carboxylic acid]	17.7 nM	194	
COc1nc(N2CCOCC2)ccc1-c1cc2c(C(=O)O)c[nH]c2cc1Cl [Example 174, 6-chloro-5-[2-methoxy-6-(morpholin-4-yl)pyridin-3-yl]-1H-indole-3-carboxylic acid]	15.3 nM	49.4	
O=C(O)c1n[nH]c2cc(Cl)c(-c3ccc4c(c3)CCO4)cc12 [Example 113, 6-Chloro-5-(2,3-dihydrobenzofuran-5-yl)-1H-indazole-3-carboxylic acid]	345 nM	100	
O=C(O)c1c[nH]c2cc(Cl)c(-c3ccc(C4CNC4)cc3)cc12 [Example 91, 5-[4-(azetidin-3-yl)phenyl]-6-chloro-1H-indole-3-carboxylic acid]	695 nM	101	
CN1CCN(CCCOc2ccc(-c3cc4c(C(=O)O)c[nH]c4cc3Cl)cc2)CC1 [Example 53, 6-chloro-5-{4-[3-(4-methylpiperazin-1-yl)propoxy]phenyl}-1H-indole-3-carboxylic acid]	22 nM	120	
O=C(O)c1n[nH]c2cc(Cl)c(-c3ccc(C4CC(O)C4)cc3)cc12 [Example 126, 6-Chloro-5-(4-((1R,3R)-3-hydroxycyclobutyl)phenyl)-1H-indazole-3-carboxylic acid]			110
CC(O)(c1ccc(-c2cc3c(C(=O)O)n[nH]c3cc2Cl)cc1)C(F)(F)F (stereo not shown) [Example 108, 6-Chloro-5-(4-(1,1,1-trifluoro-2-hydroxypropan-2-yl)phenyl)-1H-indazole-3-carboxylic acid]	94.4 nM	92	
COC(=O)N1CCC(c2ccc(-c3cc4c(C(=O)O)c[nH]c4cc3Cl)cc2)C1 (single isomer, unassigned) [Example 14A, 6-chloro-5-{4-[1-(methoxycarbonyl)pyrrolidin-3-yl]phenyl}-1H-indole-3-carboxylic acid]	101 nM	101	
O=C(O)c1n[nH]c2cc(Cl)c(-c3ccc(C4CC(O)C4)cc3)cc12 [Example 120, 6-Chloro-5-(4-((1S,3S)-3-hydroxycyclobutyl)phenyl)-1H-indazole-3-carboxylic acid]			88
CN1CCN(c2ccc(-c3cc4c(C(=O)O)n[nH]c4cc3Cl)cc2)CC1 [Example 106, 6-Chloro-5-(4-(4-methylpiperazin-1-yl)phenyl)-1H-indazole-3-carboxylic acid]	73 nM	94	

From US9394285B2 (Pfizer Inc., priority 2013, dated 2016)
